Measured values: ChEMBL document CHEMBL6127129 (J Nat Prod, 2024)

Biological target: Estrogen receptor beta (Homo sapiens, UniProt Q92731)
Sequence (Q92731 whole entry): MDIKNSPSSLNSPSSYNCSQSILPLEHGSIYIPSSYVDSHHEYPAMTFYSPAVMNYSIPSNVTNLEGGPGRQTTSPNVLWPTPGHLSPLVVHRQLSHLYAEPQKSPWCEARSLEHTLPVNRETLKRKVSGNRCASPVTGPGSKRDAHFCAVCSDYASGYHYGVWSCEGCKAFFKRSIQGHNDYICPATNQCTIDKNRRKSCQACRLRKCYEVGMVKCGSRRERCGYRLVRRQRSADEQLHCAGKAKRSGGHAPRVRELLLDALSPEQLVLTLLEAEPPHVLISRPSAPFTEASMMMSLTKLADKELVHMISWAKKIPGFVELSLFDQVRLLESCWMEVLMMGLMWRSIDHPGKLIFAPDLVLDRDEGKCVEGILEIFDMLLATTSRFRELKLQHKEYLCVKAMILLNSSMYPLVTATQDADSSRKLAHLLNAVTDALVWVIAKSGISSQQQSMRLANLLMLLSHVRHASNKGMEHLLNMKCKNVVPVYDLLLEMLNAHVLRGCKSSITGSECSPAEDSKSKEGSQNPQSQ
Description: Antagonist activity at human ER-beta transfected in human HepG2 cells incubated for 24 hrs by 3xERE-driven luciferase reporter assay

IC50: 1.32 mM
SMILES: C=CCc1ccc(OC(=O)CCC)c(-c2ccc(O)c(CC=C)c2)c1
